We go through 19 compounds from patent US20240409519A1, “HYDROGENATED QUINOXALINES” (OTSUKA PHARMACEUTICAL CO., LTD., priority 2021, published 2024).

Data set [1] in a line: Protein binding rate test (human serum, equilibrium dialysis). Conditions: test compound 0.001 mmol/L, equilibrium dialysis 37° C. 6 hours. Format: in vitro ADME. On the procedure:
A serum sample was prepared by adding a test compound solution to a human serum (final concentration of the test compound: 0.001 mmol/L). The serum sample and Dulbecco's Phosphate-Buffered Saline (D-PBS(−)) were added to the wells separated by a dialysis membrane to start the reaction. A solution of the internal standard in methanol was prepared and used as a quenching solution.
Specifically, the dialysis membrane (cut-off molecular weight 12000-14000) was pre-conditioned by immersing it in distilled water, followed by 20% ethanol. Then, the membrane was washed with D-PBS(−) and set in an equilibrium dialysis kit. Then, 150 μL of D-PBS(−) was added to one part of each well divided by the dialysis membrane, and 150 μL of serum sample was added to the other part. After sealing all wells and incubation at 37° C. for 6 hours, 30 μL from the serum side and 90 μL from the PBS side of each well were collected and mixed with 90 μL of D-PBS(−) or 30 μL of blank serum and 480 μL of a quenching solution to quench the reaction.
The mixture was centrifuged (6130 g, 4° C., 10 minutes) and the supernatant was used as a sample for LC-MS/MS.
Peak area ratio ([peak area of test compound]/[peak area of internal standard]) was calculated for the test compound and the internal standard. By comparing the peak area ratio of the PBS side for each test compound with that of the serum side, the protein binding rate (%) of each test compound was calculated from (1-[peak area ratio of PBS side]/[peak area ratio of serum side])×100.
In general terms: In equilibrium dialysis only unbound substance equilibrates across the membrane.

The next data set deals with T1, CYP3A4 (Homo sapiens, UniProt P08684).
T1 construct: a human liver microsome solution containing three CYP-specific substrates; from tissue; host or cells: human liver microsomes
T1 sequence (P08684 whole entry): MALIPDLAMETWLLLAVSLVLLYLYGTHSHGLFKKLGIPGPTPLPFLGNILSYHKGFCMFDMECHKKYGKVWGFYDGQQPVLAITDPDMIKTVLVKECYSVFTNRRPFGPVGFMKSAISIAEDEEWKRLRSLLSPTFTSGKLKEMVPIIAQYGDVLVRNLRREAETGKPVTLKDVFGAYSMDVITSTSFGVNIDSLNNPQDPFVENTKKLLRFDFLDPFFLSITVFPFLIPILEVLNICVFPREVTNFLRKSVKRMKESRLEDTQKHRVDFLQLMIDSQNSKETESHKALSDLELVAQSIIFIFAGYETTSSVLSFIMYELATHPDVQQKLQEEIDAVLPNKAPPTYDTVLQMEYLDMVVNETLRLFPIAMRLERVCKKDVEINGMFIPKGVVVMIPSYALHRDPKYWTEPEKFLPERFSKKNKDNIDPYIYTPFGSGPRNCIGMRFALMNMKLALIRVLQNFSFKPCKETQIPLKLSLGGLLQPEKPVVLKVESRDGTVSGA
The experiment in a line: CYP inhibition test (1): inhibition rate (%) at one concentration, CYP3A4. Conditions: human liver microsomes, pH 7.4, probe midazolam (0.005 mmol/L); test compound 0.01 mmol/L, human liver microsome 0.1 mg/mL, substrate midazolam, 37° C. 10 minutes; read-out: inhibition rate (%) 3A4. Format: in vitro ADME. On the procedure: A metabolic reaction was initiated by adding and mixing a test compound solution (final concentration 0.01 mmol/L) and a NADH/NADPH solution (final concentration 1 mmol/L) to a human liver microsome solution containing three CYP-specific substrates (final concentration 100 mmol/L potassium phosphate buffer solution (pH 7.4), 5 mmol/L magnesium chloride, 0.1 mg/mL human liver microsome, 0.005 mmol/L diclofenac (for CYP2C9), 0.01 mmol/L bufuralol (for […]), 0.005 mmol/L midazolam (for CYP3A4)). As an internal standard solution, a solution of each of stable isotopes of the metabolites (50 ng/mL [13C6] hydroxy diclofenac, 5 ng/mL [2H9] hydroxy bufuralol, and 5 ng/mL [13C6] hydroxy midazolam (all stable isotopes)) in methanol was prepared and used as a quenching solution.
Specifically, a metabolic reaction was initiated by adding and mixing 2 μL of a solution of a test compound in acetonitrile (or acetonitrile as a control) to 178 μL of a human liver microsome solution in ice water, followed by preincubation at 37° C. for 1 minute, and then adding 20 μL of a NADH/NADPH solution thereto. After incubation at 37° C. for 10 minutes, 50 μL of the reaction mixture was taken, and then it was added and mixed to 500 μL of a quenching solution to quech the reaction. The mixture was centrifuged (6130 g, 4° C., 10 minutes) and the supernatant was used as a sample for LC-MS/MS.
Peak area ratio ([peak area of metabolite]/[peak area of corresponding stable isotope]) was calculated for a metabolite and a stable isotope of the metabolite as measurement object. By comparing the peak area ratio of each test compound solution with that of the control, the inhibition rate (%) of each CYP species for each test compound was calculated from (1-[peak area ratio of each test compound solution]/[peak area ratio of control])×100.

For a further data set, the target named is T2, dopamine (DA) uptake (Rattus norvegicus, UniProt P23977).
T2 construct: used as crude synaptosomal fraction; from tissue; host or cells: rat striatum, crude synaptosomal fraction
T2 sequence (P23977 whole entry): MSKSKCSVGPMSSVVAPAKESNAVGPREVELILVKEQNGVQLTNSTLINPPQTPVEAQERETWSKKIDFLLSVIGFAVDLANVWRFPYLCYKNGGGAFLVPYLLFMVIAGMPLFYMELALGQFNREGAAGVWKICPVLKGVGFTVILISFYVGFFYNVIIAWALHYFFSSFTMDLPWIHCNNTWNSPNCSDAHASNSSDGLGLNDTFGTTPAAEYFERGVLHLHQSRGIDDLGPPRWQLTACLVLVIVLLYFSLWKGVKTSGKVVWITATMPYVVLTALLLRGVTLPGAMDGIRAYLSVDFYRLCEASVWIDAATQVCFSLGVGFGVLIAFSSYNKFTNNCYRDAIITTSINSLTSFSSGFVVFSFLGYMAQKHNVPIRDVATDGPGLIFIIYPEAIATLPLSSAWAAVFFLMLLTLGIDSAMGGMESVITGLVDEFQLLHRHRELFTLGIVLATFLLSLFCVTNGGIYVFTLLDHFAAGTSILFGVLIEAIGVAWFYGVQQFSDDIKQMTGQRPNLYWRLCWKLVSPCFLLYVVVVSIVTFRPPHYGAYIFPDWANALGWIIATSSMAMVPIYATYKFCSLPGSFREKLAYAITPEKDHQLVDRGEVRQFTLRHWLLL
The experiment in a line: Dopamine (DA) uptake inhibitory activity using rat brain synaptosome. Format: biochemical. Conditions: rat striatum synaptosome, tritium-labeled DA 2 nM; read-out: IC50 (nM), dopamine (DA) uptake inhibition. On the procedure:
Male Wistar rats were decapitated, each brain was removed, and the striatum was cut out. […] The homogenate was centrifuged at 1000 g at 4° C. for 10 minutes, and the supernatant was further centrifuged at 20000 g at 4° C. for 20 minutes. The pellet was suspended in an incubation buffer (20 mM Hepes buffer (pH 7.4) containing 10 mM glucose, 145 mM sodium chloride, 4.5 mM potassium chloride, 1.2 mM magnesium chloride and 1.5 mM calcium chloride) and used as crude synaptosomal fraction.
Each well of a 96-well round-bottom plate was used for the uptake reaction in a total volume of 200 μl solution containing purgurin (final concentration 10 μM) and ascorbic acid (final concentration 0.2 mg/mL). In other words, solvent, unlabeled DA or step-diluted test compound was added to each well, and one-tenth of the final volume of the synaptosomal fraction was added to each well, followed by pre-incubation at 37° C. for 10 minutes, and then tritium-labeled DA solution (final concentration 2 nM) was added and the uptake reaction was initiated at 37° C. After 10 minutes, the uptake reaction was terminated by suction filtration onto a 96-well glass fiber filter plate. The filters were rinsed with cold physi-ological saline solution, dried thoroughly, and micro scintillation 0 (Perkin-Elmer) was added thereto. Then, the residual radioactivity on the filters was measured.
The uptake value when only solvent was added was set as 100%, the uptake value when unlabeled DA (final concentration 10 μM) was added as 0% (nonspecific uptake value), and the 50% inhibitory concentration was calculated from the concentration of the test compound and its inhibitory activity.

The target in data set [2] is T3, norepinephrine (NE) uptake (Rattus norvegicus, UniProt Q63380).
T3 construct: used as crude synaptosomal fraction; from tissue; host or cells: rat hippocampus, crude synaptosomal fraction
T3 sequence (Q63380 1-617): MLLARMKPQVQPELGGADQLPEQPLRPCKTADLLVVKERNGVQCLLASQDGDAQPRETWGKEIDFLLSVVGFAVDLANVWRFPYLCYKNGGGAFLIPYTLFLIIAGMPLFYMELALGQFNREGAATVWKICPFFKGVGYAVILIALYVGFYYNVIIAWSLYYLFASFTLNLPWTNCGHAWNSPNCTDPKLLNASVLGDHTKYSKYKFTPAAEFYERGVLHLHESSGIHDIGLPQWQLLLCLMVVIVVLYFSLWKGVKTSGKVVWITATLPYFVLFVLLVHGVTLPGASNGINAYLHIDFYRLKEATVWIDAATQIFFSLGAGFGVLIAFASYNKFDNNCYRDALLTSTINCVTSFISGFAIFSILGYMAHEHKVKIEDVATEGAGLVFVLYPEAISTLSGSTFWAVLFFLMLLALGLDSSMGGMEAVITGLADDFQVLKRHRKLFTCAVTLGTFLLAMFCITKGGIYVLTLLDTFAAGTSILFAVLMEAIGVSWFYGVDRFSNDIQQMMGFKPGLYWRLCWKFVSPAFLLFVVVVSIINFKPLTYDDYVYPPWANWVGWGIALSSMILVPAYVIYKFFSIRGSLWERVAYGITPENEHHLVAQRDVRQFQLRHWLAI
The experiment in a line: Norepinephrine (NE) uptake inhibitory activity using rat brain synaptosome. It is filed as biochemical. Conditions: rat hippocampus synaptosome, tritium-labeled NE 12 nM; read-out: IC50 (nM), norepinephrine (NE) uptake inhibition. On the procedure:
Male Wistar rats were decapitated, each brain was removed, and the hippocampus was cut out. […] The homogenate was centrifuged at 1000 g at 4° C. for 10 minutes, and the supernatant was further centrifuged at 20000 g at 4° C. for 20 minutes. The pellet was suspended in an incubation buffer (20 mM Hepes buffer (pH 7.4) containing 10 mM glucose, 145 mM sodium chloride, 4.5 mM potassium chloride, 1.2 mM magnesium chloride and 1.5 mM calcium chloride) and used as crude synaptosomal fraction.
Each well of a 96-well round-bottom plate was used for the uptake reaction in a total volume of 200 μL solution containing purgurin (final concentration 10 μM) and ascorbic acid (final concentration 0.2 mg/mL).
After 10 minutes, the uptake reaction was terminated by suction filtration onto a 96-well glass fiber filter plate. The filters were rinsed with cold physi-ological saline solution, dried thoroughly, and micro scintillation 0 (Perkin-Elmer) was added thereto. Then, the residual radioactivity on the filters was measured.
The uptake value when only solvent was added was set as 100%, the uptake value when unlabeled NE (final concentration 10 μM) was added as 0% (nonspecific uptake value), and the 50% inhibitory concentration was calculated from the concentration of the test compound and its inhibitory activity.

Each structure is given as a SMILES string.

As for `OCCOc1c(F)cc(N2CC3(CCC3)N[C@H]3CCCC[C@@H]32)cc1Cl` [Example 6], the fraction unbound at 6 h, 0.001 mmol/L in data set [1] was 0.401. Also, the inhibition at 10 min, 0.01 mmol/L at CYP3A4 was determined as 23.3%. In addition, the values for the IC50 (on dopamine (DA) uptake; in data set [2]) were 5.8 nM and 8.4 nM, respectively.
As to `OCCOc1ccc(N2CC3(CCC3)N[C@H]3CCCC[C@@H]32)cc1` [Example 8], in data set [1], the fraction unbound at 6 h, 0.001 mmol/L was 0.686. Further, on CYP3A4, the inhibition at 10 min, 0.01 mmol/L was found to be 7.1%. The IC50 at dopamine (DA) uptake was 49.5 nM; in data set [2], 37.2 nM.
Taken in the same sequence, the figures for `COc1cc(N2CC3(CCC3)N[C@H]3CCCC[C@@H]32)ccc1OCCO` [Example 11] were 0.767, -1.3%, 97.9 nM and 91 nM.
Taken in the same sequence, the figures for `Cc1cc(N2CC3(CCC3)N[C@H]3CCCC[C@@H]32)cc(F)c1OCCO` [Example 14] were 0.615, 14.4%, 5.5 nM and 8.5 nM.
As to `C[C@@H]1CN(c2cc(F)c(OCCO)c(Cl)c2)[C@H]2CCCC[C@@H]2N1` [Example 17, 2-(2-chloro-6-fluoro-4-((3R,4aS,8aS)-3-methyloctahydroquinoxalin-1(2H)-yl)phenoxy)ethan-1-ol 1/2fumarate], in data set [1], the fraction unbound at 6 h, 0.001 mmol/L was 0.727. Further, the IC50 at dopamine (DA) uptake came out at 7.6 nM; in data set [2] it was 2.7 nM.
Take `C[C@H]1CN(c2cc(F)c(OCCO)c(Cl)c2)[C@H]2CCCC[C@H]2N1` [Example 18]: the fraction unbound at 6 h, 0.001 mmol/L in data set [1] was 0.741. Moreover, the IC50 is 42.9 nM at dopamine (DA) uptake and 13.3 nM in data set [2].
On to `C[C@@H]1CN(c2ccc(OC(F)(F)CO)c(Cl)c2)[C@H]2CCCC[C@@H]2N1` [Example 19], for which the fraction unbound at 6 h, 0.001 mmol/L in data set [1] is 0.471. Besides, on CYP3A4, the inhibition at 10 min, 0.01 mmol/L was 16.1%. Also, the IC50 worked out at 47.4 nM at dopamine (DA) uptake and 2.4 nM in data set [2].
Regarding `CC1(C)CN(c2ccc(OC(F)(F)CO)cc2)[C@H]2CCCC[C@@H]2N1` [Example 20, 2-(4-((4aS,8aS)-3,3-dimethyloctahydroquinoxalin-1(2H)-yl)phenoxy)-2,2-difluoroethan-1-ol], in data set [1], the fraction unbound at 6 h, 0.001 mmol/L was 0.569. The IC50 at dopamine (DA) uptake was determined as 90.9 nM; in data set [2], 4.4 nM.
Taken in the same sequence, the figures for `CC1(C)CN(c2ccc(OC(F)(F)CO)cc2)[C@@H]2CCCC[C@H]2N1` [Example 21] were 0.585, 199 nM and 69 nM.
With `COc1cc(N2CC(C)(C)N[C@H]3CCCC[C@@H]32)ccc1OC(F)(F)CO` [Example 26], in data set [1], the fraction unbound at 6 h, 0.001 mmol/L is 0.58. Further, the values for the IC50 (on dopamine (DA) uptake; in data set [2]) were 213 nM and 21.3 nM, respectively.
For `CC1(C)CN(c2ccc(OCCO)c(Cl)c2)[C@H]2CCCC[C@@H]2N1` [Example 27, 2-(2-chloro-4-((4aS,8aS)-3,3-dimethyloctahydroquinoxalin-1(2H)-yl)phenoxy)ethan-1-ol] the same measures were 0.585, 99 nM and 7.7 nM.
`CC1(C)CN(c2ccc(OCCO)c(Cl)c2)[C@@H]2CCCC[C@H]2N1` [Example 28] had a fraction unbound at 6 h, 0.001 mmol/L in data set [1] of 0.616. The IC50 at dopamine (DA) uptake was 76.5 nM; in data set [2] it was 9.7 nM.
Turning to `Cc1cc(N2CC(C)(C)N[C@H]3CCCC[C@@H]32)ccc1OC(F)(F)CO` [Example 31], the fraction unbound at 6 h, 0.001 mmol/L in data set [1] was 0.497. Further, the IC50 at dopamine (DA) uptake was 56.4 nM; in data set [2], 5.5 nM.
`Cc1cc(N2CC(C)(C)N[C@@H]3CCCC[C@H]32)ccc1OC(F)(F)CO` [Example 32] had a fraction unbound at 6 h, 0.001 mmol/L in data set [1] of 0.482. The values for the IC50 (on dopamine (DA) uptake; in data set [2]) were 60.7 nM and 7.5 nM, respectively.
With `CC1(C)CN(c2cc(F)c(OCCO)c(F)c2)[C@H]2CCCC[C@@H]2N1` [Example 34, 2-(4-((4aS,8aS)-3,3-dimethyloctahydroquinoxalin-1(2H)-yl)-2,6-difluorophenoxy)ethan-1-ol], the fraction unbound at 6 h, 0.001 mmol/L in data set [1] was 0.796. Besides, the results for the IC50 (at dopamine (DA) uptake; in data set [2]) were 73.2 nM and 5.9 nM, respectively.
`CC1(C)CN(c2cc(F)c(OCCO)c(F)c2)[C@@H]2CCCC[C@H]2N1` [Example 35] showed a fraction unbound at 6 h, 0.001 mmol/L in data set [1] of 0.776. The IC50 on dopamine (DA) uptake amounted to 59.7 nM; in data set [2], 6.8 nM.
In data set [1], `CC1(C)CN(c2cc(F)c(OCCO)c(F)c2)[C@H]2CCCC[C@H]2N1` [Example 36] had a fraction unbound at 6 h, 0.001 mmol/L of 0.638. Also, the results for the IC50 (at dopamine (DA) uptake; in data set [2]) were 25.6 nM and 5.1 nM, respectively.
In turn, `CN1[C@H]2CCCC[C@@H]2N(c2ccc(OC(F)(F)CO)cc2)CC1(C)C` [Example 37, 2,2-difluoro-2-(4-((4aS,8aS)-3,3,4-trimethyloctahydroquinoxalin-1(2H)-yl)phenoxy)ethan-1-ol] showed a fraction unbound at 6 h, 0.001 mmol/L in data set [1] of 0.529. For the same compound, the figures for the IC50 (at dopamine (DA) uptake; in data set [2]) were 81.9 nM and 34.5 nM, respectively.
Take `CC1(C)CN(c2ccc(OCCO)c(Cl)c2)[C@H]2CCCC[C@H]2N1` [Example 44, 2-(2-chloro-4-((4aR,8aS)-3,3-dimethyloctahydroquinoxalin-1(2H)-yl)phenoxy)ethan-1-ol 1/2fumarate]: the fraction unbound at 6 h, 0.001 mmol/L in data set [1] is 0.566. At CYP3A4, the inhibition at 10 min, 0.01 mmol/L is -10.7%. Further, the figures for the IC50 (at dopamine (DA) uptake; in data set [2]) were 37.5 nM and 5.2 nM, respectively.

What is called fraction unbound is free concentration divided by total concentration. The term inhibition denotes the change of the read-out against control, counted positive when it falls. One may read the IC50 as the concentration at which inhibition is half-maximal.
